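Step 1: Grow cells in 96-well plates. Step 2: Expose to compound for 48 hours at 5 concentrations. Step 3: Interpolate endpoints linearly; if unreached, use highest concentration. The concentration for 50% growth inhibition is given as GI50. TGI denotes the concentration required for complete inhibition of growth.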
Key:
Assay in all cases: NCI-60 cell line screen, 48 h
A498 renal = tested on: A498 renal
BT-549 breast = tested on: BT-549 breast
COLO 205 colon = tested on: COLO 205 colon
DU-145 prostate = tested on: DU-145 prostate
EKVX NSCLC = tested on: EKVX NSCLC
HCC-2998 colon = tested on: HCC-2998 colon
HOP-62 NSCLC = tested on: HOP-62 NSCLC
HT29 colon = tested on: HT29 colon
IGROV1 ovarian = tested on: IGROV1 ovarian
LOX IMVI melanoma = tested on: LOX IMVI melanoma
MCF7 breast = tested on: MCF7 breast
OVCAR-4 ovarian = tested on: OVCAR-4 ovarian
RPMI-8226 leukemia = tested on: RPMI-8226 leukemia
RXF 393 renal = tested on: RXF 393 renal
SK-MEL-28 melanoma = tested on: SK-MEL-28 melanoma
SW-620 colon = tested on: SW-620 colon
U251 CNS = tested on: U251 CNS
UACC-257 melanoma = tested on: UACC-257 melanoma

| SMILES | TGI (A498 renal) [µM] | TGI (BT-549 breast) [µM] | TGI (COLO 205 colon) [µM] | TGI (DU-145 prostate) [µM] | TGI (EKVX NSCLC) [µM] | TGI (HCC-2998 colon) [µM] | TGI (HOP-62 NSCLC) [µM] | TGI (HT29 colon) [µM] | TGI (IGROV1 ovarian) [µM] | TGI (LOX IMVI melanoma) [µM] | TGI (MCF7 breast) [µM] | TGI (OVCAR-4 ovarian) [µM] | TGI (RPMI-8226 leukemia) [µM] | TGI (RXF 393 renal) [µM] | TGI (SK-MEL-28 melanoma) [µM] | TGI (SW-620 colon) [µM] | TGI (U251 CNS) [µM] | TGI (UACC-257 melanoma) [µM] | GI50 (EKVX NSCLC) [µM] | GI50 (LOX IMVI melanoma) [µM] |
| --- | --- | --- | --- | --- | --- | --- | --- | --- | --- | --- | --- | --- | --- | --- | --- | --- | --- | --- | --- | --- |
| COc1ccc(O[C@H](COCc2ccccc2)C[C@@H]2COC(C)(C)O2)cc1 | > 100 | > 100 | > 100 | > 100 | > 100 | > 100 | > 100 | > 100 | > 100 | > 100 | > 100 | > 100 | > 100 | > 100 | > 100 | > 100 | > 100 | > 100 |  |  |
| Cc1c(C(=O)N2CCN(c3ccc([N+](=O)[O-])cc3)CC2)[n+](=O)c2cc(Cl)c(Cl)cc2n1[O-] | 23.1 | 33 | > 100 | 43.9 | 41.1 | 33.2 | 38.2 | 90.5 | 42.7 | > 100 | 33.2 | 29.5 | 63.4 | 27.5 | 73.4 | > 100 | 61.5 | > 100 |  |  |
| C=CCOc1ccccc1N=N/C(C#N)=N\Nc1ccccc1OCC=C | > 100 | > 100 | > 100 | > 100 | > 100 | > 100 | > 100 | > 100 | > 100 | > 100 | > 100 | > 100 | > 100 | > 100 | > 100 | > 100 | > 100 | > 100 |  |  |
| CCOC(=O)c1c(Br)c(-c2ccc(Br)cc2)c(Br)n1C | 44.2 | 79.4 | 34.3 | > 100 | 74.2 | 42.1 | 53.1 | 42.5 | > 100 | 30.4 | 80.7 | > 100 | 42.3 | 34.2 | 51.8 | > 100 | 55 | 78 | 20.3 | 14.3 |
| Cc1cc(CNC(=O)OCc2ccccc2)c(C)c2c1Oc1ccccc1O2 | 74.7 | > 100 | > 100 | > 100 | > 100 | > 100 | 53.3 | > 68.8 | > 100 | > 100 | > 100 | 72.3 | > 100 | 32.6 | > 100 | > 100 | > 67.3 | > 100 |  |  |
| COc1cc(OC)c2c(O)c3c(cc2c1)CC(C)(C)CC3=O | > 100 | > 100 | > 100 | > 100 | > 100 | > 100 | > 100 | > 100 | > 100 | > 100 | > 100 | > 100 | > 100 | > 100 | > 100 | > 100 | > 100 | > 100 |  |  |
| O=C1/C(=C\c2cccc(Oc3ccccc3)c2)S(=O)(=O)C(c2ccccc2)N1c1ccccc1Cl (stereo not given) | > 100 | > 100 | 33.5 | > 100 | 92.2 | > 100 | > 100 | 70.3 | > 100 | > 100 | > 100 | 98.1 | 56.8 | > 100 | > 100 | > 100 | > 100 | > 100 |  |  |
| O=c1[nH]nc(-c2ccccc2)n1/N=C/c1ccncc1 | 71.6 | > 100 | > 100 | > 100 | > 100 | > 100 | > 100 | > 100 | > 100 | > 100 | > 100 | > 100 | > 100 | > 100 | > 100 | > 100 | > 100 | > 100 |  |  |
| O=C1C(NCCc2ccc(O)c(O)c2)=CC(=O)c2ncccc21 | 46.7 | 19.6 | 28 | 24 | 52 | 27.8 | 49.9 | > 93.3 | 27.2 | 26.7 | 15.8 | 50.9 | > 70 | 28.4 | 28.8 | 32.3 | 12.8 | 24.8 |  |  |
| Clc1nc(Cl)c(Cl)c(Cl)n1 | 34.6 | 42.4 | 24.1 | 31.7 | 94.4 | 35.5 | 35.7 | 52.6 | 38.7 | 27.3 | 37.9 | 46.8 | > 100 | 35 | 41.3 | 20.1 | 36.1 | 31.1 |  |  |
| COC(=O)c1ccccc1C#CC#Cc1ccccc1C(=O)OC | > 10 | > 10 | 3.28 | > 10 | > 10 | > 10 | > 10 | > 10 | > 10 | > 10 | > 10 | > 10 | > 10 | > 10 | > 10 | > 10 | > 10 | > 10 |  |  |

Reference: PubChem BioAssay (NCI)
